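Protocol summary: plate cells (96-well), add compound at 5 concentrations, incubate 48 h, interpolate endpoints linearly. Abbreviation: GI50, concentration required for 50% inhibition of growth. TGI: concentration producing complete growth inhibition.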
Experiments:
Assay in all cases: NCI tumour cell line growth inhibition, 48 h
ACHN renal = system: ACHN renal
HCC-2998 colon = system: HCC-2998 colon
HCT-15 colon = system: HCT-15 colon
NCI-H23 lung = system: NCI-H23 lung
OVCAR-3 ovarian = system: OVCAR-3 ovarian
SF-539 CNS = system: SF-539 CNS
SK-MEL-28 melanoma = system: SK-MEL-28 melanoma
MCF7 breast = system: MCF7 breast
SK-MEL-5 melanoma = system: SK-MEL-5 melanoma
T-47D breast = system: T-47D breast

| SMILES | TGI (ACHN renal) [µM] | TGI (HCC-2998 colon) [µM] | TGI (HCT-15 colon) [µM] | TGI (NCI-H23 lung) [µM] | TGI (OVCAR-3 ovarian) [µM] | TGI (SF-539 CNS) [µM] | TGI (SK-MEL-28 melanoma) [µM] | TGI (MCF7 breast) [µM] | TGI (SK-MEL-5 melanoma) [µM] | TGI (T-47D breast) [µM] | GI50 (ACHN renal) [µM] | GI50 (HCT-15 colon) [µM] | GI50 (MCF7 breast) [µM] | GI50 (NCI-H23 lung) [µM] | GI50 (OVCAR-3 ovarian) [µM] | GI50 (SF-539 CNS) [µM] | GI50 (SK-MEL-28 melanoma) [µM] | GI50 (SK-MEL-5 melanoma) [µM] | GI50 (T-47D breast) [µM] | GI50 (HCC-2998 colon) [µM] |
| --- | --- | --- | --- | --- | --- | --- | --- | --- | --- | --- | --- | --- | --- | --- | --- | --- | --- | --- | --- | --- |
| O=C(NC12CC3CCC1CC(C3)C2)[C@@H]1CCCN1C(=O)OCc1ccccc1 (stereo partly specified) | > 100 | > 100 | > 100 | > 100 | > 100 | > 100 | > 100 |  |  |  |  |  |  |  |  |  |  |  |  |  |
| CC(Br)C(=O)NC(CO)C(=O)O (stereo unspecified) | > 100 |  | > 100 | > 100 | > 100 | > 100 | > 100 | > 100 | > 100 | > 100 |  |  |  |  |  |  |  |  |  |  |
| O=C(Nc1ccc(N=C=S)cc1Cl)c1cc(Br)cc(Br)c1O | 83.8 |  | 31.3 | 55.2 | > 100 | 54.6 | > 100 | > 100 | 46.5 | > 100 |  |  |  |  |  |  |  |  |  |  |
| N#C/C(=C\c1cc(OCc2ccccc2)c(OCc2ccccc2)cn1)C(N)=O | > 100 | > 100 | > 100 | > 100 | > 100 | > 100 | > 100 |  | > 100 |  |  |  |  |  |  |  |  |  |  |  |
| O=[N+]([O-])c1ccccc1C1SCc2nc3ccccc3n21 (stereo unspecified) | > 100 |  |  | > 100 |  | > 100 | > 100 |  | 48.3 |  |  |  |  |  |  |  |  |  |  |  |
| Cc1ccc(S(=O)(=O)OCC/C(=C\[Si](C)(C)C)c2ccccc2)cc1 | > 100 | > 100 | > 100 | > 100 | > 100 | > 100 | > 100 |  | > 100 |  |  |  |  |  |  |  |  |  |  |  |
| NNC(=O)C(=O)N/N=C1/CCCC1C(=O)CCC(=O)Nc1ccc(Cl)cc1 (stereo unspecified) | > 100 | > 100 | > 100 | > 100 | > 100 | > 100 | > 100 |  | > 100 |  |  |  |  |  |  |  |  |  |  |  |
| COc1cc(CNc2nc3cc(N)cc(N)c3nc2-c2ccccc2)cc(OC)c1 | 47.3 |  | > 100 | > 100 | 4.52 | 21.4 | 8.62 | > 100 | 41.7 | 4.57 | 9.42 | 19.3 | 8.34 | 16.2 | 1.86 | 5.29 | 1.76 | 13 | 1.67 |  |
| CCN1C(=S)N(CC)C2C1NC(=S)N2/N=C/C=C/c1ccccc1OC (stereo unspecified) | 40.5 | 25.3 | > 100 | > 100 | 0.64 | 0.541 | > 100 | > 100 | 3.53 |  | 0.464 | 0.267 | 0.171 | 0.466 | 0.174 | 0.194 | 1.11 | 0.137 |  | 0.392 |
| OCc1cc2c(cn1)[nH]c1ccc(NCc3ccccc3)cc12 | > 100 | 58.9 | > 100 | > 100 | 69.6 | > 100 | 38.4 |  | 25.6 |  |  |  |  |  |  |  |  |  |  |  |
| CC1=N/C(=C\c2ccc(/C=C3/N=C(C)OC3=O)cc2)C(=O)O1 | > 100 | > 100 | > 100 | > 100 | > 100 | > 100 | > 100 |  | > 100 |  |  |  |  |  |  |  |  |  |  |  |
| O=c1/c(=C/c2ccccc2[N+](=O)[O-])sc2nnc(-c3cccnc3)n12 | > 100 | > 100 | > 100 | > 100 | > 100 | > 100 | > 100 |  | > 100 |  |  |  |  |  |  |  |  |  |  |  |
| O=C(NCCNCCO)c1ccc2c(c1)oc1cc3ccccc3c(=O)n12 | > 50 |  | > 50 | > 50 |  | 33.2 | > 50 | > 50 | 32.1 | > 50 | 19 | 38.4 | 31.1 | 22.5 |  | 16.2 | > 50 | 12.6 | 24.7 |  |
| COc1cc(Nc2cnc3ccc(C(F)(F)F)cc3n2)cc(OC)c1OC | > 100 | > 100 | > 100 | > 100 | > 100 | > 100 | > 100 |  |  |  |  |  |  |  |  |  |  |  |  |  |
| COC(=O)CCC(NC(=S)N/N=C/c1cccs1)C(=O)OC (stereo unspecified) | > 100 | > 100 | > 100 | > 100 | > 100 | > 100 | > 100 |  | > 100 |  |  |  |  |  |  |  |  |  |  |  |
| COc1ccc(OC)c(NCC(=O)n2nc(/C=C\c3ccc(O)c(OC)c3)cc2/C=C\c2ccc(O)c(OC)c2)c1 |  | 3.98 | 11.8 | 31.7 | 13.9 | 6.15 | 12.3 | 10.4 | 4.91 | 14.6 |  | 2.09 | 1.61 | 2.62 | 2.58 | 1.74 | 2.66 | 1.66 | 3.05 | 2.04 |
| O=C1/C(=C\c2ccccc2)CN(C(=O)CCN2CCCCC2)C/C1=C/c1ccccc1 | 4.29 | 2.81 | 4.12 | 4.51 | 6.5 | 5.52 | 5.69 | 1.86 | 3.3 |  |  |  |  |  |  |  |  |  |  |  |
| O=C1NC(=O)c2c1n(Cc1ccccc1)c(=O)n2Cc1ccccc1 | > 100 | > 100 | > 100 | > 100 | > 100 | > 100 | > 100 |  | > 100 |  |  |  |  |  |  |  |  |  |  |  |
| CCc1ccccc1NC(=O)c1cccc([N+](=O)[O-])c1O | 62 | > 100 | > 100 | 72.5 | > 100 | > 100 | > 100 |  | 33.9 |  |  |  |  |  |  |  |  |  |  |  |
| Cc1nc(N)nc(CCC(=O)Nc2cccc(C(F)(F)F)c2)c1-c1ccc(Cl)cc1 | > 100 | > 100 | > 100 | > 100 | > 100 | > 100 | > 100 |  | > 100 |  |  |  |  |  |  |  |  |  |  |  |
| O=C1NC2=C(CCCCC/C2=N\O)C12CCCCCC2 | > 100 |  | > 100 | > 100 | > 100 | > 100 | > 100 |  | > 100 |  |  |  |  |  |  |  |  |  |  |  |
| COc1cc2oc(-c3ccc(O)cc3)cc(=O)c2c(O)c1C1OC(CO)C(O)C(O)C1O (stereo unspecified) | > 100 | > 100 | > 100 | > 100 | > 100 | > 100 | > 100 |  | > 100 |  |  |  |  |  |  |  |  |  |  |  |
